Test results from patent US12319672B2, “Alpha-D-galactopyranoside derivatives” (Idorsia Pharmaceuticals Ltd, priority 2019, dated 2025).

Assays:
human Gal-3 (hGal-3) = human Gal-3 (hGal-3) (Homo sapiens (Human), UniProt P17931); test: Competitive binding assay: binding of biotinylated hGal-3 to microplate-adsorbed asialofetuin (ASF); conditions: Activity on hGal-3; mean values of several measurements
How it was run: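 Biotinylated hGal-3 (300-1000 ng/mL) bound to ASF-coated wells with serially diluted compound, 3 h at 4° C. After washing, bound protein was detected with streptavidin-peroxidase (80 ng/mL, 1 h, 4° C) and ABTS substrate; IC50 values are means of several measurements.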

human Gal-1 (hGal-1) = test: Competitive binding assay: binding of biotinylated hGal-1 to microplate-adsorbed asialofetuin (ASF); conditions: Activities on hGal-1; mean values of several measurements
Sequence of human Gal-1 (hGal-1) (P09382 2-135 limits assumed): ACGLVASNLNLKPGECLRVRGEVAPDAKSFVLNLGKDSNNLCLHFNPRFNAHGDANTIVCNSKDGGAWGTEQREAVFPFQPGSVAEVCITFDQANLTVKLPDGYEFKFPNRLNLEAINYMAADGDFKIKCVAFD
How it was run: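 Compounds diluted in DMSO competed with biotinylated hGal-3 or hGal-1 (300-1000 ng/mL) for binding to plate-adsorbed asialofetuin for 3 h at 4° C. Bound galectin was detected with streptavidin-peroxidase (80 ng/mL, 1 h, 4° C) and ABTS substrate; IC50 reported as mean of several measurements.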

Sequence of human Gal-3 (hGal-3) (P17931 whole entry): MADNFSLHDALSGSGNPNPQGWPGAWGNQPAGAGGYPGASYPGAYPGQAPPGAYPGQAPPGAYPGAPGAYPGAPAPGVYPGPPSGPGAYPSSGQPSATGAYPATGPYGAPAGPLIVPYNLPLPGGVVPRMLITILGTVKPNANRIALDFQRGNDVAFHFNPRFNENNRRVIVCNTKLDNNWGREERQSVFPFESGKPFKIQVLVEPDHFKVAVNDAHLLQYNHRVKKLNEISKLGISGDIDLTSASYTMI

| SMILES | IC50 (human Gal-3 (hGal-3)) [nM] | IC50 (human Gal-1 (hGal-1)) [nM] |
| --- | --- | --- |
| CO[C@@H]1[C@@H](n2cc(-c3cc(F)c(F)c(F)c3)nn2)[C@@H](O)[C@@H](CO)O[C@@H]1Cn1cc(C2CCN(C(C)=O)CC2)nn1 [Example 4.04, 1-(4-(1-(((2R,3R,4S,5R,6R)-5-hydroxy-6-(hydroxymethyl)-3-methoxy-4-(4-(3,4,5-trifluorophenyl)-1H-1,2,3-triazol-1-yl)tetrahydro-2H-pyran-2-yl)methyl)-1H-1,2,3-triazol-4-yl)piperidin-1-yl)ethan-1-one] | 44 | 700 |
| CO[C@@H]1[C@@H](n2cc(-c3cc(F)c(F)c(F)c3)nn2)[C@@H](O)[C@@H](CO)O[C@@H]1Cc1cn(C2CCN(C(=O)OC(C)(C)C)CC2)nn1 [Example 4.05, tert-butyl 4-(4-(((2R,3R,4S,5R,6R)-5-hydroxy-6-(hydroxymethyl)-3-methoxy-4-(4-(3,4,5-trifluorophenyl)-1H-1,2,3-triazol-1-yl)tetrahydro-2H-pyran-2-yl)methyl)-1H-1,2,3-triazol-1-yl)piperidine-1-carboxylate] | 35 | 140 |
| CO[C@@H]1[C@@H](n2cc(-c3cc(F)c(F)c(F)c3)nn2)[C@@H](O)[C@@H](CO)O[C@@H]1Cc1cn(C2CCN(C(C)=O)CC2)nn1 [Example 4.06, 1-(4-(4-(((2R,3R,4S,5R,6R)-5-hydroxy-6-(hydroxymethyl)-3-methoxy-4-(4-(3,4,5-trifluorophenyl)-1H-1,2,3-triazol-1-yl)tetrahydro-2H-pyran-2-yl)methyl)-1H-1,2,3-triazol-1-yl)piperidin-1-yl)ethan-1-one] | 52 | 160 |
| CO[C@@H]1[C@@H](n2cc(-c3cc(F)c(F)c(F)c3)nn2)[C@@H](O)[C@@H](CO)O[C@@H]1Cc1cn(C2CCN(S(C)(=O)=O)CC2)nn1 [Example 4.07, (2R,3R,4S,5R,6R)-2-(hydroxymethyl)-5-methoxy-6-((1-(1-(methylsulfonyl)piperidin-4-yl)-1H-1,2,3-triazol-4-yl)methyl)-4-(4-(3,4,5-trifluorophenyl)-1H-1,2,3-triazol-1-yl)tetrahydro-2H-pyran-3-ol] | 12 | 100 |
| CO[C@@H]1[C@@H](n2cc(-c3cc(F)c(F)c(F)c3)nn2)[C@@H](O)[C@@H](CO)O[C@@H]1Cc1cn(C2CCN(C(=O)NC(C)(C)C)CC2)nn1 [Example 4.08, N-(tert-butyl)-4-(4-(((2R,3R,4S,5R,6R)-5-hydroxy-6-(hydroxymethyl)-3-methoxy-4-(4-(3,4,5-trifluorophenyl)-1H-1,2,3-triazol-1-yl)tetrahydro-2H-pyran-2-yl)methyl)-1H-1,2,3-triazol-1-yl)piperidine-1-carboxamide] | 10 | 67 |
| CCCS(=O)(=O)N1CCC(n2cc(C[C@H]3O[C@H](CO)[C@H](O)[C@H](n4cc(-c5cc(F)c(F)c(F)c5)nn4)[C@H]3OC)nn2)CC1 [Example 4.09, (2R,3R,4S,5R,6R)-2-(hydroxymethyl)-5-methoxy-6-((1-(1-(propylsulfonyl)piperidin-4-yl)-1H-1,2,3-triazol-4-yl)methyl)-4-(4-(3,4,5-trifluorophenyl)-1H-1,2,3-triazol-1-yl)tetrahydro-2H-pyran-3-ol] | 13 | 100 |
| CO[C@@H]1[C@@H](n2cc(-c3cc(F)c(F)c(F)c3)nn2)[C@@H](O)[C@@H](CO)O[C@@H]1Cc1cn(C2CCN(S(=O)(=O)C(C)C)CC2)nn1 [Example 4.10, (2R,3R,4S,5R,6R)-2-(hydroxymethyl)-6-((1-(1-(isopropylsulfonyl)piperidin-4-yl)-1H-1,2,3-triazol-4-yl)methyl)-5-methoxy-4-(4-(3,4,5-trifluorophenyl)-1H-1,2,3-triazol-1-yl)tetrahydro-2H-pyran-3-ol] | 25 | 270 |

Next, values leading:

| IC50 (human Gal-3 (hGal-3)) [nM] | IC50 (human Gal-1 (hGal-1)) [nM] | SMILES |
| --- | --- | --- |
| 1200 | 3030 | CO[C@@H]1[C@@H](n2cc(-c3cc(F)c(F)c(F)c3)nn2)[C@@H](O)[C@@H](CO)O[C@H]1Cc1cn(C2CCN(C(=O)OC(C)(C)C)CC2)nn1 [Example 4.11, tert-butyl 4-(4-(((2S,3R,4S,5R,6R)-5-hydroxy-6-(hydroxymethyl)-3-methoxy-4-(4-(3,4,5-trifluorophenyl)-1H-1,2,3-triazol-1-yl)tetrahydro-2H-pyran-2-yl)methyl)-1H-1,2,3-triazol-1-yl)piperidine-1-carboxylate] |
| 700 | 3040 | CO[C@@H]1[C@@H](n2cc(-c3cc(F)c(F)c(F)c3)nn2)[C@@H](O)[C@@H](CO)O[C@H]1Cc1cn(C2CCN(C(C)=O)CC2)nn1 [Example 4.12, 1-(4-(4-(((2S,3R,4S,5R,6R)-5-hydroxy-6-(hydroxymethyl)-3-methoxy-4-(4-(3,4,5-trifluorophenyl)-1H-1,2,3-triazol-1-yl)tetrahydro-2H-pyran-2-yl)methyl)-1H-1,2,3-triazol-1-yl)piperidin-1-yl)ethan-1-one] |
| 17 | 340 | CO[C@@H]1[C@@H](n2cc(-c3cc(F)c(F)c(F)c3)nn2)[C@@H](O)[C@@H](CO)O[C@@H]1Cc1cn(C2CCN(C(=O)OCc3ccccc3)CC2)nn1 [Example 4.13, benzyl 4-(4-(((2R,3R,4S,5R,6R)-5-hydroxy-6-(hydroxymethyl)-3-methoxy-4-(4-(3,4,5-trifluorophenyl)-1H-1,2,3-triazol-1-yl)tetrahydro-2H-pyran-2-yl)methyl)-1H-1,2,3-triazol-1-yl)piperidine-1-carboxylate] |
| 36 | 3880 | CO[C@@H]1[C@@H](n2cc(-c3cc(F)c(F)c(F)c3)nn2)[C@@H](O)[C@@H](CO)O[C@@H]1Cc1cn(C2CCSCC2)nn1 [Example 4.14, (2R,3R,4S,5R,6R)-2-(hydroxymethyl)-5-methoxy-6-((1-(tetrahydro-2H-thiopyran-4-yl)-1H-1,2,3-triazol-4-yl)methyl)-4-(4-(3,4,5-trifluorophenyl)-1H-1,2,3-triazol-1-yl)tetrahydro-2H-pyran-3-ol] |
| 210 | 4900 | CO[C@@H]1[C@@H](n2cc(-c3cc(F)c(F)c(F)c3)nn2)[C@@H](O)[C@@H](CO)O[C@@H]1Cc1cn(C2CC[S+]([O-])CC2)nn1 (stereo partly drawn) [Example 4.15, 4-(4-(((2R,3R,4S,5R,6R)-5-hydroxy-6-(hydroxymethyl)-3-methoxy-4-(4-(3,4,5-trifluorophenyl)-1H-1,2,3-triazol-1-yl)tetrahydro-2H-pyran-2-yl)methyl)-1H-1,2,3-triazol-1-yl)tetrahydro-2H-thiopyran 1-oxide] |
| 35 | 670 | CO[C@@H]1[C@@H](n2cc(-c3cc(F)c(F)c(F)c3)nn2)[C@@H](O)[C@@H](CO)O[C@@H]1Cc1cn(C2CCS(=O)(=O)CC2)nn1 [Example 4.16, 4-(4-(((2R,3R,4S,5R,6R)-5-hydroxy-6-(hydroxymethyl)-3-methoxy-4-(4-(3,4,5-trifluorophenyl)-1H-1,2,3-triazol-1-yl)tetrahydro-2H-pyran-2-yl)methyl)-1H-1,2,3-triazol-1-yl)tetrahydro-2H-thiopyran 1,1-dioxide] |
| 25 | 170 | CO[C@@H]1[C@@H](n2cc(-c3cc(F)c(F)c(F)c3)nn2)[C@@H](O)[C@@H](CO)O[C@@H]1Cc1cn(C2CCS(=N)(=O)CC2)nn1 (stereo partly drawn) [Example 4.17, 4-(4-(((2R,3R,4S,5R,6R)-5-hydroxy-6-(hydroxymethyl)-3-methoxy-4-(4-(3,4,5-trifluorophenyl)-1H-1,2,3-triazol-1-yl)tetrahydro-2H-pyran-2-yl)methyl)-1H-1,2,3-triazol-1-yl)-1-iminohexahydro-1l6-thiopyran 1-oxide] |
| 57 | 240 | CN=S1(=O)CCC(n2cc(C[C@H]3O[C@H](CO)[C@H](O)[C@H](n4cc(-c5cc(F)c(F)c(F)c5)nn4)[C@H]3OC)nn2)CC1 (stereo partly drawn) [Example 4.18, 4-(4-(((2R,3R,4S,5R,6R)-5-hydroxy-6-(hydroxymethyl)-3-methoxy-4-(4-(3,4,5-trifluorophenyl)-1H-1,2,3-triazol-1-yl)tetrahydro-2H-pyran-2-yl)methyl)-1H-1,2,3-triazol-1-yl)-1-(methylimino)hexahydro-1l6-thiopyran 1-oxide] |
| 34 | 1000 | CO[C@@H]1[C@@H](n2cc(-c3cc(F)c(F)c(F)c3)nn2)[C@@H](O)[C@@H](CO)O[C@@H]1Cc1cn(C2CCN([S+]([O-])C(C)(C)C)CC2)nn1 (stereo partly drawn) [Example 4.19, (2R,3R,4S,5R,6R)-6-((1-(1-(RS-tert-butylsulfinyl)piperidin-4-yl)-1H-1,2,3-triazol-4-yl)methyl)-2-(hydroxymethyl)-5-methoxy-4-(4-(3,4,5-trifluorophenyl)-1H-1,2,3-triazol-1-yl)tetrahydro-2H-pyran-3-ol] |
| 21 | 520 | CO[C@@H]1[C@@H](n2cc(-c3cc(F)c(F)c(F)c3)nn2)[C@@H](O)[C@@H](CO)O[C@@H]1Cn1cc(C2CCN(C(=O)OCc3ccccc3)CC2)nn1 [Example 4.20, benzyl 4-(1-(((2R,3R,4S,5R,6R)-5-hydroxy-6-(hydroxymethyl)-3-methoxy-4-(4-(3,4,5-trifluorophenyl)-1H-1,2,3-triazol-1-yl)tetrahydro-2H-pyran-2-yl)methyl)-1H-1,2,3-triazol-4-yl)piperidine-1-carboxylate] |
| 19 | 86 | CO[C@@H]1[C@@H](n2cc(-c3cc(F)c(F)c(F)c3)nn2)[C@@H](O)[C@@H](CO)O[C@@H]1Cc1cn(C2CCN(S(=N)(=O)C(C)(C)C)CC2)nn1 (stereo partly drawn) [Example 4.21, (2R,3R,4S,5R,6R)-2-(hydroxymethyl)-5-methoxy-6-((1-(1-(2-methylpropan-2-ylsulfonimidoyl)piperidin-4-yl)-1H-1,2,3-triazol-4-yl)methyl)-4-(4-(3,4,5-trifluorophenyl)-1H-1,2,3-triazol-1-yl)tetrahydro-2H-pyran-3-ol] |
